# Experimental data: ChEMBL document CHEMBL1201862, “PubChem BioAssay data set” (2004)
#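 1) Cells in 96-well plates. 2) Compound, 48 h, 5 concentrations. 3) Linear interpolation between surrounding doses. 4) Unreached endpoint = highest concentration. Here, GI50 denotes the concentration required for 50% inhibition of growth.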 Active and inactive are the calls of the source. Cut-off read from the data, not from the text of the source: active = GI50 up to about 1.1 µM and inactive = higher.
# What was measured:
# Assay in all cases: inhibition of tumour cell growth, NCI panel, 48 h
# NCI-H226 = tested on: NCI-H226
# LOX IMVI = tested on: LOX IMVI
# HCT-116 = tested on: HCT-116
# CAKI-1 = tested on: CAKI-1
# SF-268 = tested on: SF-268
# CCRF-CEM = tested on: CCRF-CEM
# UACC-62 = tested on: UACC-62
# U-251 = tested on: U-251
# NCI-H460 = tested on: NCI-H460
# SN12C = tested on: SN12C
# 786-0 = tested on: 786-0
# OVCAR-5 = tested on: OVCAR-5
# DLD-1 = tested on: DLD-1
# HOP-92 = tested on: HOP-92
# SK-MEL-28 = tested on: SK-MEL-28
# HCT-15 = tested on: HCT-15
# MOLT-4 = tested on: MOLT-4
Compound,GI50 (NCI-H226),GI50 (LOX IMVI),GI50 (HCT-116),GI50 (CAKI-1),GI50 (SF-268),GI50 (CCRF-CEM),GI50 (UACC-62),GI50 (U-251),GI50 (NCI-H460),GI50 (SN12C),GI50 (786-0),GI50 (OVCAR-5),GI50 (DLD-1),GI50 (HOP-92),GI50 (SK-MEL-28),GI50 (HCT-15) [µM],GI50 (MOLT-4)
c1ccc(P(=Nc2ccccc2N=P(c2ccccc2)(c2ccccc2)c2ccccc2)(c2ccccc2)c2ccccc2)cc1,0.337 µM (active),0.612 µM (active),0.593 µM (active),0.444 µM (active),> 100 µM (inactive),1.3 µM (inactive),0.562 µM (active),0.326 µM (active),0.528 µM (active),0.293 µM (active),0.555 µM (active),1.53 µM (inactive),1.47 µM (inactive),0.178 µM (active),> 100 µM (inactive),–,–
O=C1CCC2(c3ccccc3)Nc3ccc(Cl)cc3N12 (stereo unspecified),> 100 µM (inactive),> 100 µM (inactive),–,> 100 µM (inactive),> 100 µM (inactive),> 100 µM (inactive),> 100 µM (inactive),> 100 µM (inactive),> 100 µM (inactive),> 100 µM (inactive),> 100 µM (inactive),> 100 µM (inactive),> 100 µM (inactive),84.5 µM (inactive),> 100 µM (inactive),> 100,> 100 µM (inactive)
c1ccc2c(c1)nnn1c3cnccc3nc21,–,39.1 µM (inactive),27.6 µM (inactive),28.6 µM (inactive),37.8 µM (inactive),9.53 µM (inactive),47 µM (inactive),28.3 µM (inactive),16 µM (inactive),32.4 µM (inactive),32.4 µM (inactive),63.8 µM (inactive),27.5 µM (inactive),24.6 µM (inactive),> 100 µM (inactive),22.6,15.7 µM (inactive)
Cc1cn2cc(-c3ccncc3)nc2s1,> 100 µM (inactive),> 49.8 µM (inactive),> 83 µM (inactive),> 100 µM (inactive),> 100 µM (inactive),> 52.7 µM (inactive),> 100 µM (inactive),> 100 µM (inactive),> 100 µM (inactive),> 100 µM (inactive),> 100 µM (inactive),> 100 µM (inactive),> 100 µM (inactive),> 100 µM (inactive),> 100 µM (inactive),98.6,> 100 µM (inactive)
C=C(C)C(=O)OC1CCC2(C)C(CCC3C2CCC2(C)C(c4ccc(=O)oc4)CC4OC432)C1 (stereo unspecified),9.42 µM (inactive),3.82 µM (inactive),2.75 µM (inactive),4.07 µM (inactive),5.31 µM (inactive),3.26 µM (inactive),3.33 µM (inactive),6.73 µM (inactive),1.25 µM (inactive),3.61 µM (inactive),–,30.4 µM (inactive),2.18 µM (inactive),0.804 µM (active),12.5 µM (inactive),6.78,2.41 µM (inactive)
O=C(Cc1nc2ccc([N+](=O)[O-])cc2nc1O)C(=O)Nc1ccccc1[N+](=O)[O-],> 100 µM (inactive),60.7 µM (inactive),95.7 µM (inactive),> 100 µM (inactive),> 100 µM (inactive),> 100 µM (inactive),> 100 µM (inactive),–,> 100 µM (inactive),–,> 100 µM (inactive),> 100 µM (inactive),> 100 µM (inactive),> 100 µM (inactive),> 100 µM (inactive),44.1,> 100 µM (inactive)
C=CCCCCCCCCC(=O)O [UNDECYLENIC ACID],155 µM (inactive),102 µM (inactive),110 µM (inactive),106 µM (inactive),91 µM (inactive),128 µM (inactive),79.8 µM (inactive),112 µM (inactive),94.2 µM (inactive),149 µM (inactive),–,145 µM (inactive),76.2 µM (inactive),83.2 µM (inactive),135 µM (inactive),76.6,110 µM (inactive)
